Nine compounds from PubChem BioAssay (NCI) can be followed below.

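Assay format: 96-well plates, 48-hour exposure. TGI: concentration producing complete growth inhibition.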 A value given as a limit tells only on which side of the number the result lay.

Test systems include HCT-15 colon; M14 melanoma; TK-10 renal; SNB-19 CNS; COLO 205 colon; IGROV1 ovarian; SN12C renal; UACC-257 melanoma; OVCAR-3 ovarian; RPMI-8226 leukemia; U251 CNS; M19-MEL melanoma; OVCAR-8 ovarian; LOX IMVI melanoma; MOLT-4 leukemia; HL-60(TB) leukemia; SK-MEL-5 melanoma; CCRF-CEM leukemia; MCF7 breast; MDA-MB-435.
Common to all, as to assay: inhibition of tumour cell growth, NCI panel, 48 h

Turning to `CS(=O)(=O)c1ccc(-c2cc(-c3ccc(S(C)(=O)=O)cc3)[n+](-c3cc(-c4ccccc4)c([O-])c(-c4ccccc4)c3)c(-c3ccc(S(C)(=O)=O)cc3)c2)cc1`, the TGI with HCT-15 colon, in the test with M14 melanoma, in the test with TK-10 renal, in the test with SNB-19 CNS, with COLO 205 colon and in the test on IGROV1 ovarian was greater than 100 µM each time. Also, the TGI with SN12C renal, in the test on UACC-257 melanoma, in the test with OVCAR-3 ovarian, in the test on RPMI-8226 leukemia, in the test with U251 CNS and in the test with M19-MEL melanoma was greater than 100 µM throughout. The TGI with OVCAR-8 ovarian, in the test on LOX IMVI melanoma and with MOLT-4 leukemia was greater than 100 µM throughout.
Take `COC(=O)C(C(=O)Cc1ccccc1[N+](=O)[O-])C(=O)OC`: the TGI with HCT-15 colon, in the test on HL-60(TB) leukemia, in the test on M14 melanoma, with TK-10 renal, in the test on SK-MEL-5 melanoma and with SNB-19 CNS was greater than 100 µM each time. The TGI with COLO 205 colon, with IGROV1 ovarian, with SN12C renal, in the test on UACC-257 melanoma, in the test on OVCAR-3 ovarian and in the test with CCRF-CEM leukemia was greater than 100 µM in each case. Also, the TGI in the test with M19-MEL melanoma, in the test with OVCAR-8 ovarian, with LOX IMVI melanoma and with MOLT-4 leukemia was greater than 100 µM each time.
As for `O=[N+]([O-])c1ccc(-c2cnc3ccccn23)cc1`, the TGI in the test on HCT-15 colon, in the test with HL-60(TB) leukemia, in the test with M14 melanoma, in the test on SK-MEL-5 melanoma, in the test with SNB-19 CNS and in the test with COLO 205 colon was greater than 100 µM throughout. For the same compound, the TGI with SN12C renal, in the test on UACC-257 melanoma, in the test on OVCAR-3 ovarian, in the test with CCRF-CEM leukemia, with RPMI-8226 leukemia and in the test with U251 CNS was greater than 100 µM in each case. For the same compound, the TGI in the test with M19-MEL melanoma, in the test with OVCAR-8 ovarian, in the test with LOX IMVI melanoma and with MOLT-4 leukemia was greater than 100 µM throughout.
For `C=CN1C(=O)[C@H](Oc2ccccc2)[C@@H]1c1ccccc1`, the TGI in the test on HCT-15 colon, in the test with M14 melanoma, with TK-10 renal, with SK-MEL-5 melanoma, with SNB-19 CNS and in the test on IGROV1 ovarian was greater than 100 µM throughout. Also, the TGI is greater than 100 µM with SN12C renal; greater than 100 µM in the test on UACC-257 melanoma; greater than 100 µM with CCRF-CEM leukemia; 57 µM in the test with RPMI-8226 leukemia; greater than 100 µM in the test on U251 CNS; greater than 100 µM with M19-MEL melanoma. Moreover, the TGI with OVCAR-8 ovarian was found to be 83.6 µM; in the test on MOLT-4 leukemia, 91.3 µM.
Consider `CCOC(=O)C1SC(=Nc2ccccc2)N=C1C` (centres undefined), for which the TGI in the test with HCT-15 colon, in the test with HL-60(TB) leukemia, with TK-10 renal, in the test on SNB-19 CNS, in the test on COLO 205 colon and in the test with IGROV1 ovarian was greater than 100 µM in each case. The TGI in the test with SN12C renal, in the test on UACC-257 melanoma, in the test on OVCAR-3 ovarian, in the test on RPMI-8226 leukemia, in the test with U251 CNS and in the test with M19-MEL melanoma was greater than 100 µM in each case. Moreover, the TGI in the test with OVCAR-8 ovarian, in the test with LOX IMVI melanoma and with MOLT-4 leukemia was greater than 100 µM throughout.
On to `C[N+](C)(C)CC1CCC/C1=N\OC(=O)c1ccccc1` (centres undefined), for which the TGI in the test on HCT-15 colon, in the test on HL-60(TB) leukemia, with M14 melanoma, with SK-MEL-5 melanoma, with SNB-19 CNS and with COLO 205 colon was greater than 100 µM in each case. The TGI in the test on IGROV1 ovarian, in the test with SN12C renal, with UACC-257 melanoma, with OVCAR-3 ovarian, in the test with CCRF-CEM leukemia and in the test with RPMI-8226 leukemia was greater than 100 µM each time. Further, the TGI in the test on U251 CNS, with M19-MEL melanoma, in the test with OVCAR-8 ovarian, with LOX IMVI melanoma and in the test with MOLT-4 leukemia was greater than 100 µM throughout.
For the compound `CC(Oc1ccc(OCC2CCCCC2)cc1)C(=O)OCC(=O)c1ccc(-c2ccccc2)cc1` (centres undefined), the TGI in the test on HCT-15 colon, in the test with HL-60(TB) leukemia, in the test on M14 melanoma, with TK-10 renal, with SK-MEL-5 melanoma and in the test on SNB-19 CNS was greater than 100 µM each time. Also, the TGI in the test on IGROV1 ovarian, in the test on SN12C renal, in the test on UACC-257 melanoma, with OVCAR-3 ovarian, with CCRF-CEM leukemia and in the test with U251 CNS was greater than 100 µM each time. For the same compound, the TGI with M19-MEL melanoma, in the test on OVCAR-8 ovarian, in the test with LOX IMVI melanoma and in the test with MOLT-4 leukemia was greater than 100 µM each time.
Turning to `C=C(C)C1CCC2(C)CC1c1c(c(C)cc3c1[nH]c1ccccc13)O2` (centres undefined), the TGI in the test on HCT-15 colon, in the test on HL-60(TB) leukemia, in the test on M14 melanoma, with SK-MEL-5 melanoma, in the test on SNB-19 CNS and with COLO 205 colon was greater than 25 µM each time. For the same compound, the TGI in the test with IGROV1 ovarian, in the test on SN12C renal, in the test with OVCAR-3 ovarian, with CCRF-CEM leukemia, in the test on RPMI-8226 leukemia and in the test with U251 CNS was greater than 25 µM in each case. The TGI with M19-MEL melanoma, in the test on OVCAR-8 ovarian, in the test on LOX IMVI melanoma and with MOLT-4 leukemia was greater than 25 µM throughout.
Turning to `CCOC(=O)/C=C(/C(=O)OCC)n1cnc2c(=O)[nH]c(NC(C)=O)nc21`, the TGI with HCT-15 colon, in the test with HL-60(TB) leukemia, with M14 melanoma, in the test on MCF7 breast, in the test on TK-10 renal and with SK-MEL-5 melanoma was greater than 100 µM in each case. Further, the TGI in the test with SNB-19 CNS, in the test with COLO 205 colon, in the test with IGROV1 ovarian, in the test with SN12C renal, in the test with UACC-257 melanoma and in the test with OVCAR-3 ovarian was greater than 100 µM throughout. For the same compound, the TGI with CCRF-CEM leukemia, in the test with RPMI-8226 leukemia, in the test on U251 CNS, in the test with OVCAR-8 ovarian, in the test on MDA-MB-435 and in the test on LOX IMVI melanoma was greater than 100 µM each time. The compound further registered a TGI in the test on MOLT-4 leukemia greater than 100 µM.
